Measurements published in patent US20240277662A1, “Administration of a Compound to Individuals with Hepatic Impairment” (Arena Pharmaceuticals, Inc., priority 2021, published 2024).
Like-named read-outs stand apart in the source and are kept apart here.

What was measured:
[1] = Open-label, parallel-group single-dose PK study of etrasimod in patients with hepatic impairment and matched controls; format: in vivo, human; conditions: single oral dose 2 mg; for half-life: po, 2 mg, read-out: t1/2, mean (converted)
Text: (§1) A study evaluated the effect of hepatic impairment on the PK, safety, and tolerability of etrasimod.
An open-label, parallel-group study included 36 patients (aged 18-80 years; body mass index ≥18) with hepatic impairment, based on Child-Pugh score at screening (mild=5-6 [n=8], moderate=7-9 [n=8], severe=10-14 [n=6]), and demographically matched control patients with normal hepatic function (n=14 total). The first patient with severe hepatic impairment was enrolled after ≥2 patients with mild hepatic impairment and ≥2 patients with moderate hepatic impairment had been enrolled and followed for ≥48 hours after dosing to ensure no significant safety signals were observed. On Day 1, patients received a single oral dose of etrasimod 2 mg after ≥10-hour fast. PK and safety data were collected over 21 days. Safety was assessed by adverse event monitoring, vital signs, physical and neurological examination, 12-lead electrocardiogram (ECG), and clinical laboratory evaluations. Plasma concentrations of etrasimod were determined via liquid chromatography-tandem mass spectrometry (LC-MS/MS) from matrix-matched calibration curves between 0.25 to 100.0 ng/ml and 0.1 to 120.4 ng/mL for total etrasimod (bound and unbound) and unbound etrasimod, respectively. Analyte LC-MS/MS quantitation reagents included an ACE C18 column, a 20-mM ammonium acetate/acetonitrile mobile phase, a Shimadzu LC pump and autosampler, and a Sciex API6500+MS with an electrospray probe in negative multiple reaction monitoring. Plasma protein-free supernatant was collected via ultracentrifugation at 223,000 g for 4 hours. Unbound etrasimod concentrations were only measured four hours post dose and results assumed to apply to other PK collection times. For protein precipitation, acetonitrile was applied to a 1:1 mixed matrix of plasma: supernatant. The positive control was warfarin. Plasma concentrations and PK parameters were summarized by hepatic function using descriptive statistics. Unbound etrasimod PK parameters were based on total etrasimod PK parameters adjusted by percent unbound. Mean plasma concentration-time profiles were presented graphically. Phoenix WinNonlin (CertaraUSA, Inc.) was used for PK analysis.

[2] = Safety and tolerability of a single oral dose of etrasimod in the hepatic impairment study; format: in vivo, human; conditions: single oral dose 2 mg; normal hepatic function or mild, moderate, severe hepatic impairment
Text: as §1
An open-label, parallel-group study included 36 patients (aged 18-80 years; body mass index ≥18) with hepatic impairment, based on Child-Pugh score at screening (mild=5-6 [n=8], moderate=7-9 [n=8], severe=10-14 [n=6]), and demographically matched control patients with normal hepatic function (n=14 total). The first patient with severe hepatic impairment was enrolled after ≥2 patients with mild hepatic impairment and ≥2 patients with moderate hepatic impairment had been enrolled and followed for ≥48 hours after dosing to ensure no significant safety signals were observed. […] Safety was assessed by adverse event monitoring, vital signs, physical and neurological examination, 12-lead electrocardiogram (ECG), and clinical laboratory evaluations. Plasma concentrations of etrasimod were determined via liquid chromatography-tandem mass spectrometry (LC-MS/MS) from matrix-matched calibration curves between 0.25 to 100.0 ng/ml and 0.1 to 120.4 ng/mL for total etrasimod (bound and unbound) and unbound etrasimod, respectively. Analyte LC-MS/MS quantitation reagents included an ACE C18 column, a 20-mM ammonium acetate/acetonitrile mobile phase, a Shimadzu LC pump and autosampler, and a Sciex API6500+MS with an electrospray probe in negative multiple reaction monitoring. […]

[3] = approximately 281 adult subjects treated at various doses; cited from earlier work
ulcerative colitis = conditions: UC patients, cited from earlier work

- half-life ([1]; human, plasma, demographically matched normal control groups): 43.9 to 59.5 h
- half-life ([1]; human, plasma, mild hepatic impairment group): 55.7 h
- half-life ([1]; human, plasma, moderate hepatic impairment group): 69.7 h
- half-life ([1]; human, plasma, severe hepatic impairment group): 76.5 h
- Tmax ([1]; human, fasted, across all groups, plasma, read-out: median tmax): 4 to 8 h
- unbound etrasimod AUC vs demographically matched normal control groups ([1]; all hepatic impairment groups): typically comparable
- mean plasma concentration-time profiles ([1]; moderate and severe hepatic impairment groups): slightly higher
- mean plasma concentration-time profiles ([1]; normal hepatic function vs mild hepatic impairment groups): overlapped
- changes in etrasimod exposure ([1]; patients with mild, moderate or severe hepatic impairment): relatively modest changes
- unbound etrasimod Cmax, lower vs demographically matched normal control groups ([1]; progressively lower in mild, moderate and severe hepatic impairment groups): up to 42.0%
- peak exposure (Cmax) vs demographically matched normal control groups ([1]; total etrasimod, all hepatic impairment groups): comparable
Compound: O=C(O)C[C@H]1CCc2c1[nH]c1ccc(OCc3ccc(C4CCCC4)c(C(F)(F)F)c3)cc21 [Compound 1, (R)-2-(7-(4-cyclopentyl-3-(trifluoromethyl)benzyloxy)-1,2,3,4-tetrahydrocyclopenta[b]indol-3-yl)acetic acid]
- safety findings [2]: no clinically significant safety findings
- tolerability [2]: well tolerated
- safety and tolerability [3]: safe and well-tolerated
- endoscopic and symptomatic improvements versus placebo (ulcerative colitis; 2 mg QD for 12 weeks): clinically meaningful and statistically significant endoscopic and symptomatic improvements
- beneficial effects in open-label extension study (ulcerative colitis; up to 46 weeks): Sustained beneficial effects
